Data reported in patent US10550111B2, “Pyrimidine urea compound containing isoxazolines and use thereof” (SHENYANG SINOCHEM AGROCHEMICALS R&D CO., LTD, priority 2014, dated 2020).

Columns and labels:
Assay type in all cases: in vivo
[1] = system: Abutilon theophrasti Medic.; assay: Bioassay of herbicidal activity in greenhouse (further screening)
Description: (§1) Determination of herbicidal activity of compounds of the present invention against weeds was carried out by the following procedures:
(§2) Seeds of monocotyledonous and dicotyledonous weeds were sown in nutrition soil in paper pot (7 cm diameter), covered with soil in 1 cm and grown in the greenhouse under good growth conditions (temperature, atmospheric humidity, water supply). The compounds of the present invention as emulsifiable concentrate, were applied in pre-emergence and post-emergence treatment by track sprayer (Engineer Research Ltd., pressure 1.95 kg/cm^2, volume 500 L/hm^2, track speed 1.48 km/h). Pre-emergence treatment was conducted after seeding 24 hours and post-emergence treatment was done when the respective weeds reached predetermined leaf stage (grass weed 2- to 3-leaf stage, broad-leaf weed 2- to 4-leaf stage), the state of growth of the respective weeds were visually observed to determine the growth inhibition rate (%) in accordance with the following evaluation standard.
(§3) Growth inhibition rate (%): 0=no discernible action: 100=all weeds dead or not emerged.

[2] = system: Echinochloa crus-galli (L.) Beauv.; assay: as above
Description: as §1, §2, §3

[3] = system: Setaria glauca (L.) Beauv.; assay: as above
Description: as §1, §2, §3

Zinnia elegans Jacq. = assay: as above
Description: as §1, §2, §3

[4] = system: broad-leaf weeds and grass weeds; assay: General screening of herbicidal activity in greenhouse; conditions: 1000 g a.i./hm^2;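 further: 0 means no visible effect and 100 means all weeds dead or not emerged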
Description: as §1, §2, §3

Compound	Growth inhibition rate, Post-emergence treatment, Abutilon theophrasti Medic. ([1]; dose 7.5 g a.i./hm^2)	Growth inhibition rate, Post-emergence treatment, Abutilon theophrasti Medic. ([1]; dose 15 g a.i./hm^2)	Growth inhibition rate, Post-emergence treatment, Abutilon theophrasti Medic. ([1]; dose 30.0 g a.i./hm^2)	Growth inhibition rate, Post-emergence treatment, Abutilon theophrasti Medic. ([1]; dose 60.0 g a.i./hm^2)	Growth inhibition rate, Post-emergence treatment, Abutilon theophrasti Medic. ([1]; dose 120.0 g a.i./hm^2)	Growth inhibition rate, Post-emergence treatment, Abutilon theophrasti Medic. ([1]; dose 600 g a.i./hm^2)	Growth inhibition rate, Pre-emergence treatment, Abutilon theophrasti Medic. ([1]; dose 600 g a.i./hm^2)	Growth inhibition rate, Post-emergence treatment, Echinochloa crus-galli (L.) Beauv. ([2]; dose 7.5 g a.i./hm^2)	Growth inhibition rate, Post-emergence treatment, Echinochloa crus-galli (L.) Beauv. ([2]; dose 15 g a.i./hm^2)	Growth inhibition rate, Post-emergence treatment, Echinochloa crus-galli (L.) Beauv. ([2]; dose 30.0 g a.i./hm^2)	Growth inhibition rate, Post-emergence treatment, Echinochloa crus-galli (L.) Beauv. ([2]; dose 60.0 g a.i./hm^2)	Growth inhibition rate, Post-emergence treatment, Echinochloa crus-galli (L.) Beauv. ([2]; dose 120.0 g a.i./hm^2)	Growth inhibition rate, Post-emergence treatment, Echinochloa crus-galli (L.) Beauv. ([2]; dose 600 g a.i./hm^2)	Growth inhibition rate, Pre-emergence treatment, Echinochloa crus-galli (L.) Beauv. ([2]; dose 600 g a.i./hm^2)	Growth inhibition rate, Post-emergence treatment, Setaria glauca (L.) Beauv. ([3]; dose 7.5 g a.i./hm^2)	Growth inhibition rate, Post-emergence treatment, Setaria glauca (L.) Beauv. ([3]; dose 15 g a.i./hm^2)	Growth inhibition rate, Post-emergence treatment, Setaria glauca (L.) Beauv. ([3]; dose 30.0 g a.i./hm^2)	Growth inhibition rate, Post-emergence treatment, Setaria glauca (L.) Beauv. ([3]; dose 60.0 g a.i./hm^2)	Growth inhibition rate, Post-emergence treatment, Setaria glauca (L.) Beauv. ([3]; dose 120.0 g a.i./hm^2)	pre-emergence and post-emergence herbicidal activity against broad-leaf weeds and grass weeds [4]	other results
CC(=O)OCCOC(=O)C1(C)CC(c2cc(-n3c(=O)cc(C(F)(F)F)n(C)c3=O)c(F)cc2Cl)=NO1 (stereo not drawn) [Compound 17]	95%	98%	100%	100%	100%	100%	90%	30%	60%	100%	100%	100%	100%	95%	55%	60%	100%	100%	100%	good	Growth inhibition rate, Post-emergence treatment, Setaria glauca (L.) Beauv. ([3]; dose 600 g a.i./hm^2): 100%; Growth inhibition rate, Pre-emergence treatment, Setaria glauca (L.) Beauv. ([3]; dose 600 g a.i./hm^2): 85%; Growth inhibition rate, Post-emergence treatment, Zinnia elegans Jacq. (Zinnia elegans Jacq.; dose 7.5 g a.i./hm^2): 45%; Growth inhibition rate, Post-emergence treatment, Zinnia elegans Jacq. (Zinnia elegans Jacq.; dose 15 g a.i./hm^2): 55%; Growth inhibition rate, Post-emergence treatment, Zinnia elegans Jacq. (Zinnia elegans Jacq.; dose 30.0 g a.i./hm^2): 65%; Growth inhibition rate, Post-emergence treatment, Zinnia elegans Jacq. (Zinnia elegans Jacq.; dose 60.0 g a.i./hm^2): 90%; Growth inhibition rate, Post-emergence treatment, Zinnia elegans Jacq. (Zinnia elegans Jacq.; dose 120.0 g a.i./hm^2): 100%; Growth inhibition rate, Post-emergence treatment, Zinnia elegans Jacq. (Zinnia elegans Jacq.; dose 600 g a.i./hm^2): 100%; Growth inhibition rate, Pre-emergence treatment, Zinnia elegans Jacq. (Zinnia elegans Jacq.; dose 600 g a.i./hm^2): 90%
CCCCOC(=O)C1(C)CC(c2cc(-n3c(=O)cc(C(F)(F)F)n(C)c3=O)c(F)cc2Cl)=NO1 (stereo not drawn) [Compound 8]	100%	100%	100%	100%	100%	–	–	70%	95%	100%	100%	100%	–	–	60%	80%	100%	100%	100%	good	Growth inhibition rate, Post-emergence treatment, Zinnia elegans Jacq. (Zinnia elegans Jacq.; dose 7.5 g a.i./hm^2): 90%; Growth inhibition rate, Post-emergence treatment, Zinnia elegans Jacq. (Zinnia elegans Jacq.; dose 15 g a.i./hm^2): 95%; Growth inhibition rate, Post-emergence treatment, Zinnia elegans Jacq. (Zinnia elegans Jacq.; dose 30.0 g a.i./hm^2): 95%; Growth inhibition rate, Post-emergence treatment, Zinnia elegans Jacq. (Zinnia elegans Jacq.; dose 60.0 g a.i./hm^2): 100%; Growth inhibition rate, Post-emergence treatment, Zinnia elegans Jacq. (Zinnia elegans Jacq.; dose 120.0 g a.i./hm^2): 100%
Cn1c(C(F)(F)F)cc(=O)n(-c2cc(C3=NOC(C)(C(N)=O)C3)c(Cl)cc2F)c1=O (stereo not drawn) [Compound 22]	–	–	–	–	–	100%	0%	–	–	–	–	–	10%	0%	–	–	–	–	–	good	Growth inhibition rate, Post-emergence treatment, Abutilon theophrasti Medic. ([1]; dose 37.5 g a.i./hm^2): 30%; Growth inhibition rate, Post-emergence treatment, Abutilon theophrasti Medic. ([1]; dose 150 g a.i./hm^2): 55%; Growth inhibition rate, Pre-emergence treatment, Abutilon theophrasti Medic. ([1]; dose 37.5 g a.i./hm^2): 0%; Growth inhibition rate, Pre-emergence treatment, Abutilon theophrasti Medic. ([1]; dose 150 g a.i./hm^2): 0%; Growth inhibition rate, Post-emergence treatment, Echinochloa crus-galli (L.) Beauv. ([2]; dose 37.5 g a.i./hm^2): 0%; Growth inhibition rate, Post-emergence treatment, Echinochloa crus-galli (L.) Beauv. ([2]; dose 150 g a.i./hm^2): 5%; Growth inhibition rate, Pre-emergence treatment, Echinochloa crus-galli (L.) Beauv. ([2]; dose 37.5 g a.i./hm^2): 0%; Growth inhibition rate, Pre-emergence treatment, Echinochloa crus-galli (L.) Beauv. ([2]; dose 150 g a.i./hm^2): 0%; Growth inhibition rate, Post-emergence treatment, Setaria glauca (L.) Beauv. ([3]; dose 37.5 g a.i./hm^2): 10%; Growth inhibition rate, Post-emergence treatment, Setaria glauca (L.) Beauv. ([3]; dose 150 g a.i./hm^2): 10%; Growth inhibition rate, Post-emergence treatment, Setaria glauca (L.) Beauv. ([3]; dose 600 g a.i./hm^2): 15%; Growth inhibition rate, Pre-emergence treatment, Setaria glauca (L.) Beauv. ([3]; dose 37.5 g a.i./hm^2): 0%; Growth inhibition rate, Pre-emergence treatment, Setaria glauca (L.) Beauv. ([3]; dose 150 g a.i./hm^2): 0%; Growth inhibition rate, Pre-emergence treatment, Setaria glauca (L.) Beauv. ([3]; dose 600 g a.i./hm^2): 0%; Growth inhibition rate, Post-emergence treatment, Zinnia elegans Jacq. (Zinnia elegans Jacq.; dose 37.5 g a.i./hm^2): 55%; Growth inhibition rate, Post-emergence treatment, Zinnia elegans Jacq. (Zinnia elegans Jacq.; dose 150 g a.i./hm^2): 90%; Growth inhibition rate, Post-emergence treatment, Zinnia elegans Jacq. (Zinnia elegans Jacq.; dose 600 g a.i./hm^2): 95%; Growth inhibition rate, Pre-emergence treatment, Zinnia elegans Jacq. (Zinnia elegans Jacq.; dose 37.5 g a.i./hm^2): 0%; Growth inhibition rate, Pre-emergence treatment, Zinnia elegans Jacq. (Zinnia elegans Jacq.; dose 150 g a.i./hm^2): 0%; Growth inhibition rate, Pre-emergence treatment, Zinnia elegans Jacq. (Zinnia elegans Jacq.; dose 600 g a.i./hm^2): 0%
